Measured values as given in publication PMC4046051, “Two M-T hook residues greatly improve the antiviral activity and resistance profile of the HIV-1 fusion inhibitor SC29EK” (Retrovirology, 2014).
Peptide text beside a SMILES is read from it.

What was measured:
Type in all cases: cell-based
HIV-1NL4-3 pseudovirus = settings: 100 TCID50, TZM-bl cells, 48 h, luciferase, mean ± SD of three independent experiments, SD, read-out: IC50 Entry
Experimental: (§1) The inhibition of peptides on the HIV-1 entry was determined by single-cycle infection assay as described previously. Briefly, HIV-1 pseudovirus was generated by cotransfecting 293 T cells with an Env-expressing plasmid and a backbone plasmid pSG3^Δenv that encodes Env-defective, luciferase-expressing HIV-1 genome. The supernatants were harvested and filtered 48 h after transfection and 50% tissue culture infectious dose (TCID50) was determined in TZM-bl cells. The peptides were prepared with 3-fold dilutions and mixed with 100 TCID50 viruses and then incubated 1 h at room temperature. The mixture was added to TZM-bl cells (10^4/well) and incubated 48 h at 37°C. The luciferase activity was measured using luciferase assay reagents and a Luminescence Counter (Promega).

wild-type HIV-1NL4-3 = settings: wild-type HIV-1NL4-3, 100 TCID50, TZM-bl cells, two days, luciferase; mean ± SD of three independent experiments; SD; read-out: IC50 Replication
Experimental: The inhibition of peptides on HIV-1 replication was determined by a molecular cloned wild-type HIV-1NL4–3. In brief, the virus stock was harvested and quantified 48 h post-transfection. 100 TCID50 viruses were used to infect TZM-bl cells in the presence or absence of serially diluted peptides. Two days post-infection, the cells were harvested and lysed in reporter lysis buffer and the luciferase activity was measured as described above.

[1] = system: molecular clone of HIV-1NL4-3; assay: In vitro selection of HIV-1 resistance in MT-4 cells; settings: 1.5-2 fold escalating concentrations, 22 passages in 4 months
Experimental: The in vitro selection of HIV-1 resistance to peptide inhibitors was performed as described previously. Briefly, MT-4 cells were seeded at 1 × 10^4 in RPMI 1640 medium containing 10% fetal bovine serum on 12-well plates. The molecular clone of HIV-1NL4–3 was used to infect the cells in the presence or absence of diluted peptide inhibitors (SC29EK, MT-SC29EK, SC22EK and MT-SC22EK). The cells were incubated at 37°C with 5% CO2 until an extensive cytopathic effect was observed. The culture supernatants were harvested and used for next passage on fresh MT-4 cells with 1.5-2 fold increasing concentrations of peptide. Cells and supernatant were harvested at regular time points and stored at -80°C.

HIV-1 NL4-3 WT = assay: Inhibition of T20-resistant HIV-1 variants panel: WT; settings: mean ± SD of three independent experiments, SD
Experimental: as §1

HIV-1 NL4-3 I37T = assay: Inhibition of T20-resistant HIV-1 variants: I37T; settings: mean ± SD of three independent experiments, SD
Experimental: as §1

HIV-1 NL4-3 V38A = assay: Inhibition of T20-resistant HIV-1 variants: V38A; settings: mean ± SD of three independent experiments, SD
Experimental: as §1

HIV-1 NL4-3 V38M = assay: Inhibition of T20-resistant HIV-1 variants: V38M; settings: mean ± SD of three independent experiments, SD
Experimental: as §1

HIV-1 NL4-3 Q40H = assay: Inhibition of T20-resistant HIV-1 variants: Q40H; settings: mean ± SD of three independent experiments, SD
Experimental: as §1

HIV-1 NL4-3 N43K = assay: Inhibition of T20-resistant HIV-1 variants: N43K; settings: mean ± SD of three independent experiments, SD
Experimental: as §1

HIV-1 NL4-3 D36S/V38M = assay: Inhibition of T20-resistant HIV-1 variants: D36S/V38M; settings: mean ± SD of three independent experiments, SD
Experimental: as §1

HIV-1 NL4-3 I37T/N43K = assay: Inhibition of T20-resistant HIV-1 variants: I37T/N43K; settings: mean ± SD of three independent experiments
Experimental: as §1

CC[C@H](C)[C@H](NC(=O)[C@H](CCC(=O)O)NC(=O)[C@H](CCCNC(=N)N)NC(=O)[C@H](CCC(=O)O)NC(=O)[C@H](Cc1c[nH]c2ccccc12)NC(=O)[C@H](CCC(=O)O)NC(=O)[C@H](CCSC)NC(=O)[C@H](Cc1c[nH]c2ccccc12)NC(=O)[C@@H](NC(=O)[C@H](CCSC)NC(=O)[C@H](CCC(=O)O)NC(=O)[C@H](CC(N)=O)NC(=O)[C@H](Cc1c[nH]c2ccccc12)NC(=O)[C@H](CCC(=O)O)NC(=O)[C@@H](NC(C)=O)C(C)C)[C@@H](C)O)C(=O)N[C@@H](CCC(=O)O)C(=O)N[C@@H](CC(N)=O)C(=O)N[C@@H](Cc1ccc(O)cc1)C(=O)N[C@H](C(=O)N[C@@H](CCCCN)C(=O)N[C@@H](CC(C)C)C(=O)N[C@H](C(=O)N[C@@H](Cc1ccc(O)cc1)C(=O)N[C@@H](CCCCN)C(=O)N[C@H](C(=O)N[C@@H](CC(C)C)C(=O)N[C@@H](CCC(=O)O)C(=O)N[C@@H](CCC(=O)O)C(=O)N[C@@H](CO)C(=O)N[C@@H](CCC(N)=O)C(=O)N[C@@H](CCC(=O)O)C(=O)N[C@@H](CCC(N)=O)C(N)=O)[C@@H](C)CC)[C@@H](C)CC)[C@@H](C)O [CP32M] (Ac-VEWNEMTWMEWEREIENYTKLIYKILEESQEQ-NH2)
IC50 (HIV-1NL4-3 pseudovirus): 1.8 ± 0.2 nM | IC50 (wild-type HIV-1NL4-3): 1 ± 0.2 nM

CC[C@H](C)[C@H](NC(=O)[C@H](CC(C)C)NC(=O)[C@H](CCC(=O)O)NC(=O)[C@H](CCC(=O)O)NC(=O)[C@@H](NC(=O)[C@H](CCCCN)NC(=O)[C@H](CCCCN)NC(=O)[C@@H](NC(=O)[C@H](Cc1ccc(O)cc1)NC(=O)[C@H](CCC(=O)O)NC(=O)[C@H](CCC(=O)O)NC(=O)[C@@H](NC(=O)[C@H](CCCCN)NC(=O)[C@H](CCCCN)NC(=O)[C@H](CC(=O)O)NC(=O)[C@H](Cc1c[nH]c2ccccc12)NC(=O)[C@H](CCC(=O)O)NC(=O)[C@H](CCC(=O)O)NC(=O)[C@H](Cc1c[nH]c2ccccc12)NC(=O)[C@@H](NC(=O)[C@H](CCSC)NC(C)=O)[C@@H](C)O)[C@@H](C)CC)[C@@H](C)O)[C@@H](C)CC)C(=O)N[C@@H](CCCCN)C(=O)N[C@@H](CCCCN)C(=O)N[C@@H](CO)C(N)=O [MT-SC22EK] (Ac-MTWEEWDKKIEEYTKKIEELIKKS-NH2)
IC50 (HIV-1NL4-3 pseudovirus): 2.1 ± 0.2 nM | IC50 (wild-type HIV-1NL4-3): 1.1 ± 0.1 nM | peptide concentration reached during in vitro selection of resistant virus [1]: ~100 nM

CC[C@H](C)[C@H](NC(=O)[C@H](CCC(=O)O)NC(=O)[C@H](CCCNC(=N)N)NC(=O)[C@H](CCC(=O)O)NC(=O)[C@H](Cc1c[nH]c2ccccc12)NC(=O)[C@@H](NC(=O)[C@H](CCC(=O)O)NC(=O)[C@H](Cc1c[nH]c2ccccc12)NC(=O)[C@H](CO)NC(C)=O)[C@@H](C)O)C(=O)N[C@@H](CCC(=O)O)C(=O)N[C@@H](CC(N)=O)C(=O)N[C@@H](Cc1ccc(O)cc1)C(=O)N[C@H](C(=O)N[C@@H](CCCNC(=N)N)C(=O)N[C@@H](CCC(N)=O)C(=O)N[C@H](C(=O)N[C@@H](Cc1ccc(O)cc1)C(=O)N[C@@H](CCCNC(=N)N)C(=O)N[C@H](C(=O)N[C@@H](CC(C)C)C(=O)N[C@@H](CCC(=O)O)C(=O)N[C@@H](CCC(=O)O)C(=O)N[C@@H](CO)C(=O)N[C@@H](CCC(N)=O)C(=O)N[C@@H](CCC(=O)O)C(=O)N[C@@H](CCC(N)=O)C(=O)N[C@@H](CCC(N)=O)C(=O)N[C@@H](CC(=O)O)C(=O)N[C@@H](CCCNC(=N)N)C(=O)N[C@@H](CC(N)=O)C(=O)N[C@@H](CCC(=O)O)C(=O)N[C@@H](CCCNC(=N)N)C(=O)N[C@@H](CC(=O)O)C(=O)N[C@@H](CC(C)C)C(=O)N[C@@H](CC(C)C)C(=O)N[C@@H](CCC(=O)O)C(N)=O)[C@@H](C)CC)[C@@H](C)CC)[C@@H](C)O [SFT, Sifuvirtide] (Ac-SWETWEREIENYTRQIYRILEESQEQQDRNERDLLE-NH2)
IC50 (HIV-1NL4-3 pseudovirus): 2.6 ± 0.1 nM | IC50 (wild-type HIV-1NL4-3): 1.5 ± 0.1 nM

CC[C@H](C)[C@H](NC(=O)[C@H](C)NC(=O)[C@H](CCCNC(=N)N)NC(=O)[C@H](CC(=O)O)NC(=O)[C@H](Cc1c[nH]c2ccccc12)NC(=O)[C@H](C)NC(=O)[C@H](CCC(=O)O)NC(=O)[C@H](Cc1c[nH]c2ccccc12)NC(=O)[C@@H](NC(=O)[C@@H](NC(C)=O)[C@@H](C)O)[C@@H](C)O)C(=O)N[C@@H](C)C(=O)N[C@@H](CCC(=O)O)C(=O)N[C@@H](Cc1ccc(O)cc1)C(=O)N[C@@H](C)C(=O)N[C@@H](C)C(=O)N[C@@H](CCCNC(=N)N)C(=O)N[C@H](C(=O)N[C@@H](CCC(=O)O)C(=O)N[C@@H](C)C(=O)N[C@@H](CC(C)C)C(=O)N[C@H](C(=O)N[C@@H](CCCNC(=N)N)C(=O)N[C@@H](C)C(=O)N[C@@H](C)C(=O)N[C@@H](CCC(N)=O)C(=O)N[C@@H](CCC(=O)O)C(=O)N[C@@H](CCC(N)=O)C(=O)N[C@@H](CCC(N)=O)C(=O)N[C@@H](CCC(=O)O)C(=O)N[C@@H](CCCCN)C(=O)N[C@@H](CC(N)=O)C(=O)N[C@@H](CCC(=O)O)C(=O)N[C@@H](C)C(=O)N[C@@H](C)C(=O)N[C@@H](CC(C)C)C(=O)N[C@@H](CCCNC(=N)N)C(=O)N[C@@H](CCC(=O)O)C(=O)N[C@@H](CC(C)C)C(N)=O)[C@@H](C)CC)[C@@H](C)CC [T2635]
IC50 (HIV-1NL4-3 pseudovirus): 1.1 ± 0.1 nM

enfuvirtide
IC50 (wild-type HIV-1NL4-3): 48.6 ± 1.2 nM | IC50 (HIV-1 NL4-3 WT): 52.1 ± 8.5 nM | IC50 (HIV-1 NL4-3 I37T): 552 ± 123 nM | IC50 (HIV-1 NL4-3 V38A): 1840 ± 56.1 nM | IC50 (HIV-1 NL4-3 V38M): 378 ± 41.7 nM | IC50 (HIV-1 NL4-3 Q40H): 1320 ± 92.3 nM | IC50 (HIV-1 NL4-3 N43K): 367 ± 47.4 nM | IC50 (HIV-1 NL4-3 D36S/V38M): 203 ± 12.6 nM | IC50 (HIV-1 NL4-3 I37T/N43K): > 2250 nM
